# Where two headings read alike, the source gives them in different places.
# What was measured:
# [1] = system: M. avium; type: cell-based; settings: M. avium resistant to fluoroquinolones, mutation Ala83Val (Table 9)
# [2] = system: M. fortuitum; assay: In-vitro MIC in solid medium against fluoroquinolone-resistant clinical isolates; type: cell-based; settings: Mycolicibacterium fortuitum, no mutation indicated, Table 10 1st strain
# [3] = system: M. tuberculosis H37Rv strain; type: in vivo, Swiss female mice
# [4] = system: M. tuberculosis strain H37Rv; assay: In vivo susceptibility of M. tuberculosis to compound 12 in combination with other antimycobacterial agents, lung CFU (Tables 13, 14); set-up: species or system Swiss mice; settings: for CFU 1 month (lung) / CFU 2 months (lung): once-a-day group (gavage 5 days/week from day 14), D0 = 7.23; for CFU 1 month (lung): lung CFU after 1 month of treatment; for CFU 2 months (lung): lung CFU after 2 months of treatment; for Decrease 1 mo vs D0 (lung CFU) / Decrease 2 mo vs D0 (lung CFU) / % positive mice 2nd month: once-a-day group; for Decrease 1 mo vs D0 (lung CFU): 1 month of treatment versus D0 (7.23); for Decrease 2 mo vs D0 (lung CFU): 2 months of treatment versus D0 (7.23); for % positive mice 2nd month: culture-positive mice / mice examined after 2 months; for % positive mice / lung CFU*: once-a-week group, after 2 months of treatment; for lung CFU*: by gavage, D0 value 7.23
# [5] = […], treatment from day 14, five times weekly, title: 2 months (footnote: four weeks, sacrifice day 42)
Structure (SMILES),MIC [1] [µg/mL],MIC [2] [µg/mL],"Mean CFU (log10) per Lung [3, 5] [log10]","Mean CFU (log10) per Spleen [3, 5] [log10]","Spleen weight (mean) [3, 5] [mg]",CFU 1 month (lung) [4],CFU 2 months (lung) [4],Decrease 1 mo vs D0 (lung CFU) [4],Decrease 2 mo vs D0 (lung CFU) [4],% positive mice 2nd month [4],% positive mice [4],lung CFU* [4],"Mean CFU (log10) per Lung ([3]; mouse, in vivo) [log10]","Mean CFU (log10) per Spleen ([3]; mouse, in vivo) [log10]","Spleen weight (mean) ([3]; mouse, in vivo) [mg]"
"COc1nc2ccc(Br)cc2cc1[C@@H](c1ccccc1)[C@@](O)(CCN(C)C)c1cccc2ccccc12 [Compound 12, (αS,βR)-6-bromo-α-[2-(dimethylamino)ethyl]-2-methoxy-α-1-naphthalenyl-β-phenyl-3-quinolineethanol]",0.007,0.01,0.22 ± 0.32,1.24 ± 0.50,248 ± 47,4.14,2.28,−3.09,−4.95,8/10,9/9,1.99 +/− 0.75,,,
"COc1c(N2C[C@@H]3CCCN[C@@H]3C2)c(F)cc2c(=O)c(C(=O)O)cn(C3CC3)c12 [M, moxifloxacin]",,,2.89 ± 0.57,3.53 ± 0.34,400 ± 99,5.51,4.3,−1.72,−2.93,10/10,7/7,6.44 +/− 0.5,,,
"CC1COc2c(N3CCN(C)CC3)c(F)cc3c(=O)c(C(=O)O)cn1c23 (stereo not drawn) [Ofloxacin, ofloxacin]",,1,,,,,,,,,,,,,
"CO[C@H]1/C=C/O[C@@]2(C)Oc3c(C)c(O)c4c(O)c(c(/C=N/N5CCN(C)CC5)c(O)c4c3C2=O)NC(=O)/C(C)=C\C=C\[C@H](C)[C@H](O)[C@@H](C)[C@@H](O)[C@@H](C)[C@H](OC(C)=O)[C@@H]1C [Rifampin, rifampin]",16,128,,,,6.01,4.07,−1.22,−3.16,10/10,,,1.89 ± 0.50,2.75 ± 0.34,391 ± 70
